EC50 and Activity data for 22 compounds are collected here from ChEMBL document CHEMBL2040790 (Bioorg Med Chem Lett, 2012).

Activity calls are given as the source filed them. The rule behind the calls is not given here. Where only a bound is given, the exact number is not on record here.

By EC50 is commonly meant the midpoint of the concentration-response curve.

Data set [1] deals with Vaccinia virus. Nature of the data set: Antiviral activity against Vaccinia virus. The class given is functional, organism-based. Particulars: Orthopoxvirus vaccinia.
Data set [2] relates to La Crosse virus. Nature of the data set: Antiviral activity against La Crosse virus infected in african green monkey Vero cells assessed as inhibition of virus-induced cytopathic effect by fluorometric analysis. Type of data set: functional, organism-based. (Cytopathic effects are the visible damage that an infection or toxin causes in cultured cells.)
Data set [3] has as its system Vaccinia virus. Nature of the data set: Antiviral activity against Vaccinia virus at 25 uM during single experiment set up. The class given is functional, organism-based. Particulars: Orthopoxvirus vaccinia.
In data set [4] the test system is La Crosse virus. Nature of the data set: Antiviral activity against La Crosse virus infected in african green monkey Vero cells assessed as inhibition of virus-induced cytopathic effect at 25 uM during single experiment set up by fluorometric analysis. Type of data set: functional, organism-based.
In another data set the test system is Vero. Briefly: Cytotoxicity against african green monkey Vero cells. The following applies: chlorocebus sabaeus. Type of data set: cell-based.

On to `CC(C)(C)c1ccc(C(=O)NC(=S)Nc2ccc(N)cc2)cc1`, for which the EC50 in the data set on Vaccinia virus [1] was 4410 nM; with La Crosse virus [2], 2270 nM. Also, the outcome in the data set with Vaccinia virus [3] was inactive.

With `COc1cc(NC(=S)NC(=O)c2ccc(C(C)(C)C)cc2)ccc1NC(=O)c1ccc(C(=O)O)cc1`, the EC50 in the data set with Vaccinia virus [1] and in the data set on La Crosse virus [2] was more than 25000 nM throughout. Moreover, the result in the data set on Vaccinia virus [3] and in the data set with La Crosse virus [4] was inactive.

For `CC(C)(C)c1ccc(C(=O)NC(=S)Nc2cc(C(C)(C)C)ccc2O)cc1`, the half-maximal effective concentration (EC50) in the data set with Vaccinia virus [1] stood at 980 nM; with La Crosse virus [2], 3420 nM. Besides, in the data set on Vero, the Activity entry is reported as “Toxic”.

With `Cc1cc(C)cc(NC(=S)NC(=O)c2ccc(C(C)(C)C)cc2)c1`, the results for the concentration for a half-maximal effect (EC50) with Vaccinia virus [1] and with La Crosse virus [2] were 3480 nM and 4430 nM, respectively. For the same compound, the outcome in the data set on La Crosse virus [4] was inactive.

For the compound `CC(C)(C)c1ccc(C(=O)NC(=S)Nc2ccc(NC(=O)c3ccccc3)cc2)cc1`, the concentration giving a half-maximal response (EC50) came out at 170 nM in the data set on Vaccinia virus [1] and 150 nM in the data set with La Crosse virus [2]. In addition, the outcome in the data set with Vaccinia virus [3] and with La Crosse virus [4] was inactive.

For the compound `Cc1ccc(Cl)c(NC(=S)NC(=O)c2ccc(C(C)(C)C)cc2)c1`, the figures for the 50% effective concentration (EC50) with Vaccinia virus [1] and in the data set with La Crosse virus [2] were 660 nM and 1670 nM, respectively. Also, the result with La Crosse virus [4] was inactive.

Turning to `CC(C)(C)c1ccc(C(=O)NC(=S)Nc2cc(Cl)ccc2Cl)cc1`, the concentration for a half-maximal effect (EC50) with Vaccinia virus [1] came out at 2420 nM; in the data set on La Crosse virus [2], 2450 nM. Further, the result with Vaccinia virus [3] and in the data set on La Crosse virus [4] was inactive.

Regarding `CC(C)(C)c1ccc(C(=O)NC(=S)Nc2cccc(N)c2)cc1`, the EC50 was 2720 nM in the data set on Vaccinia virus [1] and 2190 nM with La Crosse virus [2]. Further, the result in the data set on Vaccinia virus [3] was inactive.

Compound `COc1cc(NC(=S)NC(=O)c2ccc(C(C)(C)C)cc2)ccc1NC(=O)c1cccc(C(=O)O)c1` showed a half-maximal effective concentration (EC50) with Vaccinia virus [1] of more than 25000 nM. Besides, the outcome with Vaccinia virus [3] and in the data set with La Crosse virus [4] was inactive.

For `COc1cc(NC(=S)NC(=O)c2ccc(C(C)(C)C)cc2)ccc1N`, the figures for the EC50 with Vaccinia virus [1] and in the data set with La Crosse virus [2] were 2090 nM and 1690 nM, respectively. Also, the result in the data set on Vaccinia virus [3] and in the data set with La Crosse virus [4] was inactive.

In the case of `COc1cc(NC(=S)NC(=O)c2ccc(C(C)(C)C)cc2)ccc1NC(=S)c1ccccc1Cl`, the EC50 amounted to 990 nM in the data set with Vaccinia virus [1] and 640 nM in the data set with La Crosse virus [2].

For `COc1cc(NC(=S)NC(=O)c2ccc(C(C)(C)C)cc2)ccc1NC(=O)c1ccccn1`, the EC50 in the data set on Vaccinia virus [1] and with La Crosse virus [2] was more than 25000 nM each time.

For `CC(C)(C)c1ccc(C(=O)NC(=S)Nc2cccc(Cl)c2)cc1`, the EC50 in the data set with Vaccinia virus [1] turned out to be 1580 nM; in the data set on La Crosse virus [2], 4160 nM.

As to `Cc1c(Cl)cccc1NC(=S)NC(=O)c1ccc(C(C)(C)C)cc1`, the EC50 stood at 6470 nM in the data set on Vaccinia virus [1] and 919 nM with La Crosse virus [2]. Further, the result with Vaccinia virus [3] and with La Crosse virus [4] was inactive.

For the compound `CC(C)(C)c1ccc(C(=O)NC(=S)Nc2ccccc2)cc1`, the EC50 came out at 5570 nM in the data set on Vaccinia virus [1] and 5010 nM with La Crosse virus [2]. Besides, the outcome with La Crosse virus [4] was inactive.

For `COc1cc(NC(=S)NC(=O)c2ccc(C(C)(C)C)cc2)ccc1NC(=O)c1ncccn1`, the EC50 in the data set on Vaccinia virus [1] and with La Crosse virus [2] was more than 25000 nM in each case.

Take `COc1cccc(NC(=S)NC(=O)c2ccc(C(C)(C)C)cc2)c1`: the half-maximal effective concentration (EC50) in the data set with Vaccinia virus [1] is 4070 nM; with La Crosse virus [2], more than 25000 nM.

As for `COC(=O)c1cnc(NC(=S)NC(=O)c2ccc(C(C)(C)C)cc2)s1`, the concentration for a half-maximal effect (EC50) in the data set on Vaccinia virus [1] and in the data set on La Crosse virus [2] was more than 25000 nM each time.

For the compound `CC(C)(C)c1ccc(C(=O)NC(=S)Nc2nc(-c3cccc([N+](=O)[O-])c3)cs2)cc1`, the 50% effective concentration (EC50) with Vaccinia virus [1] and in the data set on La Crosse virus [2] was more than 25000 nM throughout.

Regarding `COc1ccccc1NC(=S)NC(=O)c1ccc(C(C)(C)C)cc1`, the half-maximal effective concentration (EC50) worked out at 1390 nM in the data set with Vaccinia virus [1] and 1150 nM in the data set with La Crosse virus [2].

Regarding `COc1cc(NC(=S)NC(=O)c2ccc(C(C)(C)C)cc2)ccc1NC(=O)c1cnccn1`, the EC50 in the data set with Vaccinia virus [1] and with La Crosse virus [2] was more than 25000 nM throughout.

`CC(C)(C)c1ccc(C(=O)NC(=S)Nc2ccc(Cl)cc2Cl)cc1`: the EC50 in the data set with Vaccinia virus [1] and in the data set on La Crosse virus [2] was more than 25000 nM in each case.
